Square brackets hold non-standard residues; d marks the D form. Peptide text beside a SMILES is read from it. pY = N[C@@H](Cc1ccc(OP(=O)(O)O)cc1)C(=O)O
Experiments:
[1] = target: unphosphorylated STAT3 monomer (uSTAT3) SH2 domain (Homo sapiens, UniProt P40763); test: Fluorescence polarisation assay for the inhibition of STAT3 dimerisation; assay type: binding; settings: 350 nM uSTAT3, 10 nM FAM-pYLPQTV, 100 μM ligand; average of triplicate
Description: Fluorescence Polarisation Assay for the Inhibition of STAT3 Dimerisation
The compounds were subjected to an in vitro fluorescent polarisation (FP)-based primary PPI binding screen to assess their ability to inhibit STAT3 dimerisation by interacting with the SH2 domain. In this FP assay, the unphosphorylated STAT3 monomer (uSTAT3) and a surrogate peptide FAM-pYLPQTV were used to form a ‘pseudo-dimer’. The assay is based on the concept that the compounds were expected to displace the surrogate peptide from the uSTAT3 resulting in a fluorescent read out.
Specifically, for the FP assay, a black (CORNING™) 96 well plate was thoroughly washed with distilled water and allowed to dry. A 100 nM FAM-pYLPQTV working solution was prepared from 10 μM FAM-pYLPQTV stock solution (in DMSO) using PBS pH 7.4 Buffer. 10 μl FAM-pYLPQTV was added to 350 nM uSTAT3 protein, the final concentration of protein in each well, in 90 μl PBS buffer pH 7.4. The MP value of the surrogate dimer complex was measured using a fluorescent plate reader (Envision™, Perkin Elmer™, USA), which provided the base MP value. The inhibitor solution was then added to the well and the assay plate was placed on a shaker for 5 minutes. The MP value for each well was then measured again. A shift in fluorescent values was observed due to displacement of the fluorescently-labelled surrogate peptide by the inhibitors, and the average inhibition for each inhibitor could be calculated as described below:
Base MP value (X) for each well=MP value of Protein and Probe (350 nm STAT3+10 nM FAM-pYLPQTV)−MP value of free FAM-pYLPQTV
Inhibitor MP value (Y) for each well=MP value of Protein+Probe+Inhibitor (350 nm uSTAT3+10 nM FAM-pYLPQTV+2 μL Inhibitor)−MP value of free FAM-pYLPQTV with 2 μL DMSO
% inhibition by any ligand/peptide=(X−Y)/X*100
For comparison purpose, the % inhibition produced by 100 μM pYLKTKF was considered to be 100%, and the inhibition produced by different ligands was reported as relative to 100 μM pYLKTKF.
% Inhibition produced by 100 μM pYLKTKF=A
% Inhibition produced by 100 μM Ligand=B
Relative inhibition (%)=B/A*100
The experiment was carried out in triplicate, and average values were taken as the measure of PPI inhibition.

[2] = system: MDA-MB-231 breast (STAT3-dependent) cancer cell line; test: MTT cell viability assay, MDA-MB-231; assay type: cell-based, human; settings: for IC50: Homo sapiens, MDA-MB-231, 48 h, MTT, 48 hours exposure (table title); for Selectivity ratio: STAT3-null A4 versus STAT3-dependent MDA-MB-231
Description: (§1) MTT Cell viability assay with both MDA-MB-231 breast (STAT3-dependent) and A4 (STAT3-null) cancer cell lines.
(§2) After observing significant STAT3 dimerisation inhibitory activity in the preliminary FP assay, the target ligand and related fragments were progressed to an MTT cytotoxicity assay to evaluate in a STAT3-dependent tumour cell line (MDA MB 231, breast cancer) and a STAT3 null A4 cell line. It was anticipated that the compounds would show selective toxicity towards the STAT3-dependent MDA MB 231 cell line and would have lost activity in the STAT3 null A4 cell line if the mechanism of action was STAT3-mediated.
(§3) For each cell line, a total of 10,000 cells were seeded for 24 hours before addition of the inhibitors. The cells were grown in normal cell culture conditions at 37° C. under a 5% CO2 humidified atmosphere using an appropriate medium. The cell count was adjusted to 10^5 cells/ml, and 5,000-20,000 cells were added per well depending on the cell line. The cells were then incubated for 24 hours, and 1 μl aliquots of the inhibitors were added to the wells in triplicate. […] Absorbance was quantified by spectrophotometry at A=570 nm (Envision™ Plate Reader, PerkinElmer™, USA). IC50 values were calculated by a dose-response analysis using the Prism GraphPad Prism® software package.

[3] = system: A4 (STAT3-null) cancer cell line; test: MTT cell viability assay, A4; assay type: cell-based; settings: exposure (table title)
Description: as §1, §2, §3

Chain of unphosphorylated STAT3 monomer (uSTAT3) SH2 domain (P40763 whole entry, the tested form may be a part): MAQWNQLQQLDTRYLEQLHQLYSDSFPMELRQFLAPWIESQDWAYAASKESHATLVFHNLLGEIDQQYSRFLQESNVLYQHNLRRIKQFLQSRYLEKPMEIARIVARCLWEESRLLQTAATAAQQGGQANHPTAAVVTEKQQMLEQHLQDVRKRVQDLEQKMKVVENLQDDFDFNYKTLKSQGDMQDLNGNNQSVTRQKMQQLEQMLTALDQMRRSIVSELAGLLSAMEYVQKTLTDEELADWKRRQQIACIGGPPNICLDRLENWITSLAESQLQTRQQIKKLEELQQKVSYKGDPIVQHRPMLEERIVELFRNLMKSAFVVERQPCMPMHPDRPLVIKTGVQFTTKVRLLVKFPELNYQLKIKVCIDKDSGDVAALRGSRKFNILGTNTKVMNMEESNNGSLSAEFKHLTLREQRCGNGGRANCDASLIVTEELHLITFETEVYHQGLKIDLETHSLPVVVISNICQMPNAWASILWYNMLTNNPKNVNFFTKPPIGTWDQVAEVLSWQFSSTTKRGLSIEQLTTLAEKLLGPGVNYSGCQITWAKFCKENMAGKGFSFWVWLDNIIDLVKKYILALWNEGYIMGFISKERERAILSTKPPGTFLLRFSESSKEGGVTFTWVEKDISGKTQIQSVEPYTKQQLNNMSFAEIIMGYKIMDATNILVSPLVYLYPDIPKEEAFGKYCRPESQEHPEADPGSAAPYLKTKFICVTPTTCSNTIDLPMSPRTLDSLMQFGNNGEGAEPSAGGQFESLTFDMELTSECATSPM

| Structure (SMILES) | inhibition at 100 µM [1] [%] | IC50 [2] [µM] | Selectivity ratio [2] | IC50 [3] [µM] | cytotoxicity in the MTT assay ([2]; highest concentration (100 μM) evaluated) |
| --- | --- | --- | --- | --- | --- |
| COC(=O)c1ccc(N(C)S(=O)(=O)c2cc(C(=O)NCc3ccc(CN4CCCCC4)cc3)sc2-c2ccc(N3CCOCC3)cc2)cc1 [Compound 1, methyl 4-((N-methyl-2-(4-morpholinophenyl)-5-((4-(piperidin-1-ylmethyl)benzyl)carbamoyl)thiophene)-3-sulfonamido)benzoate] | 59.4 | 2.68 | 28.13 | 75.4 | – |
| COC(=O)c1ccc(N(C)S(=O)(=O)c2cc(C(=O)NCc3ccc(CN4CCCCC4)cc3)sc2-c2ccc(N3CCCCC3)cc2)cc1 [Compound 2, methyl 4-((N-methyl-2-(4-(piperidin-1-yl)phenyl)-5-((4-(piperidin-1-ylmethyl)benzyl)carbamoyl)thiophene)-3-sulfonamido)benzoate] | 51.2 | 2.12 | 39.76 | 84.3 | – |
| COC(=O)c1ccc(N(C)S(=O)(=O)c2cc(C(=O)NCc3ccc(CN4CCCCC4)cc3)sc2-c2ccnc(N3CCN(C)CC3)c2)cc1 [Compound 5, methyl 4-((N-methyl-2-(2-(4-methylpiperazin-1-yl)pyridin-4-yl)-5-((4-(piperidin-1-ylmethyl)benzyl)carbamoyl)thiophene)-3-sulfonamido)benzoate] | 46.9 | 2.43 | 23.62 | 57.4 | – |
| COC(=O)c1ccc(N(C)S(=O)(=O)c2cc(C(=O)NCc3ccc(CN4CCCCC4)cc3)sc2-c2ccc(C(=O)N3CCN(C)CC3)cc2)cc1 [Compound 7, methyl 4-((N-methyl-2-(4-(4-methylpiperazine-1-carbonyl)phenyl)-5-((4-(piperidin-1-ylmethyl)benzyl)carbamoyl)thiophene)-3-sulfonamido)benzoate] | 40.6 | 6.5 | 10.01 | 65.1 | – |
| COC(=O)c1ccc(N(C)S(=O)(=O)c2cc(C(=O)NCc3ccc(CN4CCCCC4)cc3)sc2-c2ccc(C#N)cc2)cc1 [Compound 8, methyl 4-((2-(4-cyanophenyl)-N-methyl-5-((4-(piperidin-1-ylmethyl)benzyl)carbamoyl)thiophene)-3-sulfonamido)benzoate] | 36.4 | 12.4 | 2.76 | 34.3 | – |
| COC(=O)c1ccc(N(C)S(=O)(=O)c2cc(C(=O)Nc3ccc(OCCN4CCOCC4)cc3)sc2-c2ccc(N3CCOCC3)cc2)cc1 [Compound 9, methyl 4-((N-methyl-5-((4-(2-morpholinoethoxy)phenyl)carbamoyl)-2-(4-morpholinophenyl)thiophene)-3-sulfonamido)benzoate] | 54.1 | 2.88 | 31.21 | 89.9 | – |
| COC(=O)c1ccc(N(C)S(=O)(=O)c2cc(C(=O)Nc3ccc(OCCN4CCOCC4)cc3)sc2-c2ccc(N3CCN(C)CC3)nc2)cc1 [Compound 11, methyl 4-((N-methyl-2-(6-(4-methylpiperazin-1-yl)pyridin-3-yl)-5-((4-(2-morpholinoethoxy)phenyl)carbamoyl)thiophene)-3-sulfonamido)benzoate] | 58.3 | 7.51 | 8.84 | 66.4 | – |
| COC(=O)c1ccc(N(C)S(=O)(=O)c2cc(C(=O)Nc3ccc(OCCN4CCOCC4)cc3)sc2-c2ccc(C(=O)N3CCOCC3)cc2)cc1 [Compound 12, methyl 4-((N-methyl-2-(4-(morpholine-4-carbonyl)phenyl)-5-((4-(2-morpholinoethoxy)phenyl)carbamoyl)thiophene)-3-sulfonamido)benzoate] | 59.4 | 3.91 | 19.28 | 75.4 | – |
| COC(=O)c1ccc(N(C)S(=O)(=O)c2cc(C(=O)Nc3ccc(OCCN4CCOCC4)cc3)sc2-c2ccnc(N3CCN(C)CC3)c2)cc1 [Compound 13, methyl 4-((N-methyl-2-(2-(4-methylpiperazin-1-yl)pyridin-4-yl)-5-((4-(2-morpholinoethoxy)phenyl)carbamoyl)thiophene)-3-sulfonamido)benzoate] | 56.2 | 1.86 | 40.01 | 74.7 | – |
| COC(=O)c1ccc(N(C)S(=O)(=O)c2cc(C(=O)Nc3ccc(OCCN4CCOCC4)cc3)sc2-c2ccnc(N3CCNCC3)c2)cc1 [Compound 14, methyl 4-((N-methyl-5-((4-(2-morpholinoethoxy)phenyl)carbamoyl)-2-(2-(piperazin-1-yl)pyridin-4-yl)thiophene)-3-sulfonamido)benzoate] | 33.3 | 14.5 | 5.40 | 78.4 | – |
| COC(=O)c1ccc(N(C)S(=O)(=O)c2cc(C(=O)Nc3ccc(OCCN4CCOCC4)cc3)sc2-c2ccc(C(=O)N3CCN(C)CC3)cc2)cc1 [Compound 15, methyl 4-((N-methyl-2-(4-(4-methylpiperazine-1-carbonyl)phenyl)-5-((4-(2-morpholinoethoxy)phenyl)carbamoyl)thiophene)-3-sulfonamido)benzoate] | 40.6 | 10.1 | 8.45 | 84.5 | – |
| COC(=O)c1ccc(N(C)S(=O)(=O)c2cc(C(=O)Nc3ccc(OCCN4CCOCC4)cc3)sc2-c2ccc(C#N)cc2)cc1 [Compound 16, methyl 4-((2-(4-cyanophenyl)-N-methyl-5-((4-(2-morpholinoethoxy)phenyl)carbamoyl)thiophene)-3-sulfonamido)benzoate] | 47.9 | 1.1 | 32.36 | 35.6 | – |
| COC(=O)c1ccc(N(C)S(=O)(=O)c2cc(C(=O)NCc3ccc(N4CCN(C)CC4)cc3)sc2-c2ccc(N3CCCCC3)cc2)cc1 [Compound 17, methyl 4-((N-methyl-5-((4-(4-methylpiperazin-1-yl)benzyl)carbamoyl)-2-(4-(piperidin-1-yl)phenyl)thiophene)-3-sulfonamido)benzoate] | 43.7 | 4.7 | 13.68 | 64.3 | – |
| COC(=O)c1ccc(N(C)S(=O)(=O)c2cc(C(=O)Nc3ccc(N4CCCCC4)cc3)sc2-c2ccc(N3CCCCC3)cc2)cc1 [Compound 18, methyl 4-((N-methyl-2-(4-(piperidin-1-yl)phenyl)-5-((4-(piperidin-1-yl)phenyl)carbamoyl)thiophene)-3-sulfonamido)benzoate] | 45.8 | 3.5 | 12.94 | 45.3 | – |
| COC(=O)c1ccc(N(C)S(=O)(=O)c2cc(C(=O)Nc3ccc4c(ccn4Cc4ccccc4)c3)sc2Br)cc1 [Compound 40, methyl 4-((5-((1-benzyl-1H-indo1-5-yl)carbamoyl)-2-bromo-N-methylthiophene)-3-sulfonamido)benzoate] | 47.1 | – | – | – | – |
| CC(C)C[C@H](NC(=O)[C@@H](N)Cc1ccc(OP(=O)(O)O)cc1)C(=O)N[C@@H](CCCCN)C(=O)N[C@H](C(=O)N[C@@H](CCCCN)C(=O)N[C@@H](Cc1ccccc1)C(=O)O)[C@@H](C)O [pYLKTKF, reference compound] (H-[pY]LKTKF-OH) | 41.6 | – | – | – | did not show any cytotoxicity |

From patent US20200216432A1, “SULFONAMIDE DERIVATIVES AS STAT3 INHIBITORS FOR THE TREATMENT OF PROLIFERATIVE DISEASES” (King's College London, priority 2017, published 2020)
